Source: patent US4406902A, “Dipeptidase inhibitors” (Merck & Co., Inc., priority 1981, dated 1983)

Columns and labels:
[1] = target: T1, renal dipeptidase (E.C.3.4.13.11) (Sus scrofa, UniProt P22412); experiment: in vitro screen: inhibition of hydrolysis of glycyldehydrophenylalanine (GDP) by solubilized dipeptidase from hog kidneys; type: biochemical; settings: GDP 0.05 mM; pH 7.1; 37° C.; hog kidney dipeptidase; read-out: inhibitor binding constant, Ki (ki)
T1 construct: solubilized preparation of dipeptidase isolated from hog kidneys; from tissue; host or cells: hog kidney (solubilized, lyophilized enzyme preparation)
T1 sequence (P22412 17-409): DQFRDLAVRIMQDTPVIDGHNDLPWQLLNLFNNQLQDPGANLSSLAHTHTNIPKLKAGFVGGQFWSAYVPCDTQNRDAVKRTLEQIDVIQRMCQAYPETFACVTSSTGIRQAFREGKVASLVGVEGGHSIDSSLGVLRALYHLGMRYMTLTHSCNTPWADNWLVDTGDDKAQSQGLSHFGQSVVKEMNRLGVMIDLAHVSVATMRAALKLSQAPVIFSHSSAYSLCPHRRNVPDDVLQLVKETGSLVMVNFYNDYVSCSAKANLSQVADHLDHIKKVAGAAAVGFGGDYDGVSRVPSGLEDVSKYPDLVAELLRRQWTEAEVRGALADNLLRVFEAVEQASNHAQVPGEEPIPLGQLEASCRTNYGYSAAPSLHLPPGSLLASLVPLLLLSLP
Protocol: This measured the ability of compounds to inhibit hydrolysis of glycyldehydrophenylalanine (GDP) by a solubilized preparation of dipeptidase isolated from hog kidneys. The procedure is as follows: to a 1 ml. system containing 50 mM "MOPS" (3-(N-morpholino)propanesulfonic acid) buffer, pH 7.1, is added 5 μg of lyophilized enzyme, and the test compound at a final concentration of 0.1 mM. After a five minute incubation at 37° C., GDP is added to a final concentration of 0.05 mM. […] Inhibition of the enzyme is gauged by comparison to a standard run containing no inhibitor and is expressed as the inhibitor binding constant, Ki.

renal dipeptidase = target: T2, renal dipeptidase (Sus scrofa, UniProt P22412); experiment: hydrolysis of GDP and thienamycin as substrates by renal dipeptidase; type: biochemical, hog; settings: GDP compared with thienamycin
T2 construct: GPI-anchored homodimer
T2 sequence (P22412 17-384): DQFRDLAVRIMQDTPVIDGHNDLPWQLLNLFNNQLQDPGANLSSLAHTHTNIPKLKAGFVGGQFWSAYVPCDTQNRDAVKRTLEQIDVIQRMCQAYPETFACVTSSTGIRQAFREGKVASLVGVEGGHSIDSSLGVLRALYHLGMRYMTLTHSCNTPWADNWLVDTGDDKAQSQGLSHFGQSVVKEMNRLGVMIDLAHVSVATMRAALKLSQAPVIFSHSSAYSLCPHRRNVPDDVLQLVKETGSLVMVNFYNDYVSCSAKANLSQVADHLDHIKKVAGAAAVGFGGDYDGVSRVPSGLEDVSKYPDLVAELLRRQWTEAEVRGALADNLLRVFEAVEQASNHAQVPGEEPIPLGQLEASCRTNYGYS

[2] = disposition studies with thienamycin, its natural analogs and semi-synthetic derivatives (urinary recovery, plasma half-life); type: in vivo; settings: mouse, rat, dog, chimpanzee, Rhesus monkey
Protocol: Chem., 205 65 (1932); see also Greenstein, J. P., Advances in Enzymology, Vol. VIII, Wiley-Interscience, (1948), New York, and Campbell, B. J.; Lin, Y-C., Davis, R. V. and Ballew, E., "The Purification and Properties of Particulate Renal Dipeptidase", Biochim. Biophys. Acta., 118, 371 (1966).
Urinary recovery of thienamycin was measured in all cases with the use of a cylinder or disc diffusion assay, conducted in a manner described in U.S. Pat. No. 3,950,357. This bioassay, with Staphylococcus aureus ATCC 6538 as the test organism, has a useful response range from 0.04 μg/ml to 3.0 μg/ml.

Structure (SMILES)	Ki [1] [nM]	also measured
CC1(C)CC1C(=O)N/C(=C\CCCCSc1ncccc1O)C(=O)O (single isomer, unassigned; (+)) [Example 2, (+)-Z-2-(2,2-Dimethylcyclopropanecarboxamido)-7-(3-hydroxy-2-pyridylthio)-2-heptenoic acid]	20	–
NCC(=O)NC(=Cc1ccccc1)C(=O)O [GDP, glycyldehydrophenylalanine]	–	maximal velocity of hydrolysis by renal dipeptidase (renal dipeptidase): much higher maximal velocity of hydrolysis
C[C@@H](O)[C@H]1C(=O)N2C(C(=O)O)=C(SCCN)C[C@H]12 [thienamycin]	–	plasma half-life [2]: short plasma half-lives; urinary recovery [2]: low urinary recovery

The next lines start with results.

Ki [1] [nM]	Structure (SMILES)	also measured
40	CC1(C)CC1C(=O)N/C(=C\CCCCSc1ncccc1C(=O)O)C(=O)O (racemic) [Example 3, Racemic Z-7-(3-carboxy-2-pyridylthio)-2-(2,2-dimethylcyclopropanecarboxamido)-2-heptenoic acid]	–
250	CC1(C)CC1C(=O)N/C(=C\CCCCSc1ccc(C(=O)O)cn1)C(=O)O (racemic) [Example 4, Racemic Z-7-(5-carboxy-2-pyridylthio)-2-(2,2-dimethylcyclopropanecarboxamido)-2-heptenoic acid]	–
